For one assay, the system named is SW837. The assay can be described thus: Cell growth inhibition assay (Cell Titer Glo) and combination data analysis. It is filed as cell-based. The following applies: Homo sapiens, 72 h, Colon, KRAS_G12C, 3 days.
A further assay concerns 12R5-1. The assay is described as above. It is filed as cell-based. Particulars: Homo sapiens, A375P-F11, 72 h, Melanoma, resistant clone of A375 PF11, BRAF_V600E, 3 days.
The next assay has as its system RKO. The assay is described as above. It is filed as cell-based. Particulars: Homo sapiens, 72 h, Colon, BRAF_V600E, 3 days, mean ± std.
A further assay has as its system DLD1. The assay is described as above. It is filed as cell-based. The following applies: Homo sapiens, DLD-1, 72 h, Colon, KRAS_G13D, 3 days.
The test system of a further assay is SW1463. The description is as above. It is filed as cell-based. Particulars: Homo sapiens, 72 h, Colon, KRAS_G12C, 3 days.
For a further assay, the system named is HT-29. Described as above. It is filed as cell-based. Particulars: Homo sapiens, 72 h, Colon, BRAF_V600E, 3 days, mean ± std.
Assay [1] has as its system melanoma lines 16R5-2, 16R6-4 and 12R5-1. The assay can be described thus: Cell growth inhibition assay, summary of Table 3. It is filed as cell-based, human. Particulars: 16R5-2, 16R6-4, 12R5-1; compound alone. As for the experimental part: Cell lines and growth conditions—Human colon tumor lines, Colo-205, DLD-1, HCT-8, HT-29, LS-1034, NCI-H508, RKO, SW1417, SW1463, SW480 and SW837, and human melanoma line A375 were from ATCC. A375 PF11 was derived from A375.
Cell growth inhibition assay and combination data analysis—All cells were cultured for a minimum of 72 hours prior to cell plating. Cells were assayed in a 96-well tissue culture plate (NUNC 136102) of RPMI medium containing 10% FBS for all cells at 1,000 cells per well. […] ATP levels were determined by adding Cell Titer Glo® (Promega) according to the manufacturer's protocol. Briefly, Cell Titer Glo® was added each plate, incubated for 30 minutes then luminescent signal was read on the SpectraMax L plate reader with a 0.5 sec integration time.
Inhibition of cell growth was estimated after treatment with compound or combination of compounds for three days and comparing the signal to cells treated with vehicle (DMSO). Cell growth was calculated relative to vehicle (DMSO) treated control wells. […]
The combination effects on the response scale were quantified by Excess Over Highest Single Agent (EOHSA) based on the concept of nonlinear blending as described in detail by Peterson and Novick (2007) and Peterson (2010) [(2;3) [Peterson and Novick, 2007; Peterson, 2010]. […]

For a further assay, the system named is 12R5-3. Briefly: Cell growth inhibition assay (Cell Titer Glo) and combination data analysis. It is filed as cell-based. Particulars: Homo sapiens, A375P-F11, 72 h, Melanoma, resistant clone of A375 PF11, BRAF_V600E, 3 days.
The subject of another assay is A375PF11. The description is as above. It is filed as cell-based. The following applies: Homo sapiens, A375P-F11, 72 h, Melanoma, BRAF_V600E, 3 days, mean ± std.
In a further assay the test system is 16R5-2. Described as above. The following applies: Homo sapiens, A375P-F11, 72 h, Melanoma, resistant clone of A375 PF11, BRAF_V600E, 3 days. It is filed as cell-based.
The subject of the next assay is 16R6-3. Described as above. It is filed as cell-based. Particulars: Homo sapiens, A375P-F11, 72 h, Melanoma, resistant clone of A375 PF11, BRAF_V600E, 3 days.
The test system of the next assay is 12R8-1. The description is as above. It is filed as cell-based. The following applies: Homo sapiens, A375P-F11, 72 h, Melanoma, resistant clone of A375 PF11, BRAF_V600E, 3 days.
In assay [2] the test system is four colon cell lines with BRAF V600E mutation. Briefly: Cell growth inhibition assay, summary of Table 3. It is filed as cell-based. Particulars: Homo sapiens, read-out: IC50 values, single agent. As for the experimental part:
(§1) A375 PF11 was derived from A375.
(§2) Cell growth inhibition assay and combination data analysis—All cells were cultured for a minimum of 72 hours prior to cell plating. […] Cells were incubated in the presence of compounds for 3 days. ATP levels were determined by adding Cell Titer Glo® (Promega) according to the manufacturer's protocol. Briefly, Cell Titer Glo® was added each plate, incubated for 30 minutes then luminescent signal was read on the SpectraMax L plate reader with a 0.5 sec integration time.
(§3) Inhibition of cell growth was estimated after treatment with compound or combination of compounds for three days and comparing the signal to cells treated with vehicle (DMSO). Cell growth was calculated relative to vehicle (DMSO) treated control wells.
(§4) In general, a CI value <0.9, between 0.9 and 1.1, or >1.1 indicates synergy, additivity and antagonism, respectively. In general, the smaller the Cl number, the greater is the strength of synergy.
(§5) EOHSA values are defined as increases in improvement (here, in ‘percentage points’ (ppts) difference) produced by the combination over the best single agent at its component dose level for the combination. For single agent and combination treatments, cells were exposed to compounds at a fixed-dose-ratio, and dose response curves were fit to the experimental data and analyzed using regression models. At specified total dose levels of IC50 along the dose response curve, the dose combination (corresponding to IC50) was determined for making EOHSA statistical inferences.

For assay [3], the system named is seven colon lines without BRAF V600E mutation (either with BRAF G596R or KRAS mutations). Briefly: Cell growth inhibition assay, summary of Table 3. It is filed as cell-based. The following applies: Homo sapiens. Here is the method:
as §1, §2, §3, §4, §5

The next assay concerns NCI-H508. The assay can be described thus: Cell growth inhibition assay (Cell Titer Glo) and combination data analysis. Particulars: Homo sapiens, 72 h, Colon, BRAF_G596R, 3 days. It is filed as cell-based.
The test system of another assay is SW480. Described as above. It is filed as cell-based. The following applies: Homo sapiens, 72 h, Colon, KRAS_G12C, 3 days.
For another assay, the system named is Colo-205. The assay is described as above. It is filed as cell-based. Particulars: Homo sapiens, 72 h, Colon, BRAF_V600E, 3 days, mean ± std.
In assay [4] the test system is melanoma lines 12R8-3, 12R8-1, 12R5-3, and 16R6-3. The assay can be described thus: Cell growth inhibition assay, summary of Table 3. It is filed as cell-based. The following applies: Homo sapiens; range over 12R8-3, 12R8-1, 12R5-3, 16R6-3; read-out: IC50, single agent.
In the next assay the test system is LS-1034. Briefly: Cell growth inhibition assay (Cell Titer Glo) and combination data analysis. It is filed as cell-based. Particulars: Homo sapiens, 72 h, Colon, KRAS_A146T, 3 days.
In a further assay the test system is 12R8-3. The description is as above. It is filed as cell-based. The following applies: Homo sapiens, A375P-F11, 72 h, Melanoma, resistant clone of A375 PF11, BRAF_V600E, 3 days.
The subject of another assay is HCT-8. The assay is described as above. It is filed as cell-based. The following applies: Homo sapiens, 72 h, Colon, KRAS_G13D, 3 days.
A further assay relates to SW1417. Described as above. It is filed as cell-based. Particulars: Homo sapiens, 72 h, Colon, BRAF_V600E, 3 days, mean ± std.
The test system of a further assay is 16R6-4. The assay is described as above. It is filed as cell-based. The following applies: Homo sapiens, A375P-F11, 72 h, Melanoma, resistant clone of A375 PF11, BRAF_V600E, 3 days.
Where [5] appears, read: mean ± std, read-out: IC50 Single Agent Compound A.
Where [6] appears, read: read-out: IC50 Single Agent Compound A.
The mark [7] stands for this setting: read-out: IC50 Single Agent Compound B.

Structures are written as SMILES. Where two headings read alike, the source gives them in different places.

Protocol for A375PF11: (§6) Cell growth inhibition assay and combination data analysis—All cells were cultured for a minimum of 72 hours prior to cell plating. Cells were assayed in a 96-well tissue culture plate (NUNC 136102) of RPMI medium containing 10% FBS for all cells at 1,000 cells per well. Approximately 24 hours after plating, cells were exposed to ten, three-fold serial dilutions of compound or the combination of the two agents at a constant molar to molar ratio of 1:10 Compound A (DMSO solvate) to Compound B (free form) in RPMI media containing 10% FBS. Concentrations tested for Compound A were 1 μM-0.05 nM and for Compound B were 10 μM-0.5 nM. Cells were incubated in the presence of compounds for 3 days. ATP levels were determined by adding Cell Titer Glo® (Promega) according to the manufacturer's protocol. Briefly, Cell Titer Glo® was added each plate, incubated for 30 minutes then luminescent signal was read on the SpectraMax L plate reader with a 0.5 sec integration time.
Description for Colo-205: (§7) EOHSA values are defined as increases in improvement (here, in ‘percentage points’ (ppts) difference) produced by the combination over the best single agent at its component dose level for the combination. For single agent and combination treatments, cells were exposed to compounds at a fixed-dose-ratio, and dose response curves were fit to the experimental data and analyzed using regression models. […]
Description for DLD1: as §7
Description for HT-29: as §7
Description for RKO: as §7
Description for SW1417: as §7
Protocol for SW1463: as §6

On to `CC(=O)Nc1cccc(-n2c(=O)n(C3CC3)c(=O)c3c(Nc4ccc(I)cc4F)n(C)c(=O)c(C)c32)c1` [Compound A, N-{3-[3-cyclopropyl-5-(2-fluoro-4-iodo-phenylamino)6,8-dimethyl-2,4,7-trioxo-3,4,6,7-tetrahydro-2H-pyrido[4,3-d]pyrimidin-1-yl]phenyl}acetamide], for which the IC50 in the assay on SW837 (setting [5]) is 93 ± 63 nM; in the assay on 12R5-1 (setting [6]), over 1000 nM; in the assay on RKO (setting [6]) it was 25 ± 7 nM; in the assay with DLD1 (setting [5]), 557 ± 393 nM; in the assay with SW1463 (setting [5]) it was 5 ± 4 nM; in the assay on HT-29 (setting [6]) it was 1 ± 1 nM. The IC50 in the assay with 12R5-3 (setting [5]) was 92 ± 52 nM; in the assay with A375PF11 (setting [6]), 1 nM; in the assay on 16R5-2 (setting [6]), over 1000 nM; in the assay on 16R6-3 (setting [5]), 109 ± 22 nM; in the assay with 12R8-1 (setting [5]) it was 58 ± 30 nM; in assay [2] (range over the four colon cell lines with BRAF V600E mutation), 1 to 25 nM. Also, the IC50 in assay [3] (six out of the seven colon lines without BRAF V600E mutation, read-out: IC50s, single agent) was 1 to 93 nM; with NCI-H508 (setting [5]) it was 10 ± 5 nM; in the assay with SW480 (setting [5]) it was 42 ± 3 nM; in the assay with Colo-205 (setting [6]), 1 nM; in assay [4], 58 to 109 nM; with LS-1034 (setting [5]) it was 11 ± 7 nM. Besides, the IC50 in the assay on 12R8-3 (setting [5]) is 59 ± 37 nM; in the assay with HCT-8 (setting [5]) it was 50 ± 11 nM; with SW1417 (setting [6]) it was 3 ± 2 nM; in the assay with 16R6-4 (setting [6]), over 1000 nM. Further, the “sensitivity to single agent” value in assay [1] is “resistant or insensitive”.
With `CC(C)(C)c1nc(-c2cccc(NS(=O)(=O)c3c(F)cccc3F)c2F)c(-c2ccnc(N)n2)s1` [Compound B, N-{3-[5-(2-Amino-4-pyrimidinyl)-2-(1,1-dimethylethyl)-1,3-thiazol-4-yl]-2-fluorophenyl}-2,6-difluorobenzenesulfonamide], the IC50 in the assay on SW837 (setting [7]) is over 10000 nM; in the assay on 12R5-1 (setting [7]) it was over 10000 nM; with RKO (setting [7]), 5650 ± 3900 nM; with DLD1 (setting [7]), over 10000 nM; in the assay on SW1463 (setting [7]), over 10000 nM; in the assay on HT-29 (setting [7]) it was 22 ± 22 nM. The IC50 in the assay with 12R5-3 (setting [7]) was over 10000 nM; with A375PF11 (setting [7]), 12 nM; in the assay with 16R5-2 (setting [7]), over 10000 nM; in the assay with 16R6-3 (setting [7]), over 10000 nM; with 12R8-1 (setting [7]), over 10000 nM; in assay [2] it was 18 to 5650 nM. Moreover, the IC50 in assay [3] (read-out: IC50, single agent) is over 10000 nM; in the assay on NCI-H508 (setting [7]), over 10000 nM; in the assay with SW480 (setting [7]), over 10000 nM; in the assay on Colo-205 (setting [7]), 18 ± 13 nM; in assay [4], over 10000 nM; with LS-1034 (setting [7]), over 10000 nM. Besides, the IC50 was over 10000 nM in the assay with 12R8-3 (setting [7]), over 10000 nM in the assay with HCT-8 (setting [7]), 203 ± 15 nM in the assay on SW1417 (setting [7]) and over 10000 nM in the assay on 16R6-4 (setting [7]). The “sensitivity to single agent” value in assay [1] is “resistant or insensitive”.
